One data set relates to human beings. Particulars: cited from earlier work.
For data set [1] the following is noted: cited from earlier work.
For another data set, the system named is Rhyzopertha dominica. As to the kind of experiment: whole plant or invertebrate. The conditions noted are these: Rhyzopertha dominica, read-out: Mortality (%) (Mean ± SD). On the procedure: (§1) Cryptolestes sp. was reared on wheat feed. S. oryzae, Cryptolestes sp. and T. castaneum cultures were maintained at 25±1° C. and 70% RH whereas R. dominica cultures were maintained at 30±1° C. and 70% RH. From the established cultures, 2-week-old adults were taken and counted into 10 cm×2.3 cm size test tubes at 50 per replicate. The mouth of the tube was closed with a cloth piece held by small rubber ring. The insects were exposed to a range of doses (10 to 100 mg/litre) of esters for 24 hours in 0.85-liter desicators at the laboratory temperature of 26±2° C. Pure grade esters including allyl acetate, butyl acetate, ethyl acetoacetate, isopropyl acetate and propyl acetate were procured from Merck India Ltd. In each desiccator a 9 cm diameter Whatman No. 1 filter circle was placed; the filter circle acted as evaporating surface for the injected liquids (esters). Required quantity of the ester was drawn from the bottles using 10, 25 or 50 micro litre liquid syringe. There were 6 replicates for each dose with equal number of replicates for untreated control. The exposure period in all cases was 24 hours. […] Insect mortality was assessed after 14 days. Corrected mortality was arrived at based on Abbott's formula (1925).

The test system of another data set is Sitophilus oryzae. As to the kind of experiment: whole plant or invertebrate. Particulars: Sitophilus oryzae, read-out: Mortality (%) (Mean ± SD). As for the experimental part: as §1
The next data set deals with Tribolium castaneum. As to the kind of experiment: whole plant or invertebrate. Particulars: Tribolium castaneum, read-out: Mortality (%) (Mean ± SD). On the procedure:
as §1

One may read the mortality as the share of the test organisms that died.

For `N#CC#N` [cyanogen, reference compound], in the data set with human beings, the “toxicity to human beings” value is given as “highly toxic”. In data set [1], the Solubility in water result is recorded as “highly water-soluble”.
Consider `CCOC(=O)CC(C)=O` [Ethyl acetoacetate, ethyl acetoacetate], for which, in the data set on Rhyzopertha dominica, the mortality at 10 µg/mL was found to be 0%, the mortality at 20 µg/mL was 0%, the mortality at 30 µg/mL came to 5.7 ± 10.4% and the mortality at 50 µg/mL was found to be 8.6 ± 17.1%. In addition, in the data set with Rhyzopertha dominica, the mortality at 100 µg/mL worked out at 0.4 ± 0.9%. In the data set with Sitophilus oryzae, the mortality at 10 µg/mL came out at 3.1 ± 6.9%, the mortality at 20 µg/mL turned out to be 4.7 ± 7.1%, the mortality at 30 µg/mL amounted to 5.1 ± 5.7% and the mortality at 50 µg/mL worked out at 6.5 ± 5.5%. Moreover, in the data set on Sitophilus oryzae, the mortality at 100 µg/mL worked out at 15.8 ± 14%. Besides, in the data set with Tribolium castaneum, the mortality at 10 µg/mL amounted to 0.6 ± 2.6%, the mortality at 20 µg/mL was determined as 0.8 ± 1.1%, the mortality at 30 µg/mL was determined as 0.3 ± 1.1% and the mortality at 50 µg/mL was determined as 0.7 ± 0.8%. For the same compound, the mortality at 100 µg/mL in the data set with Tribolium castaneum came to 1.3 ± 0.8%.
Turning to `O=S(=O)(F)F` [sulfuryl fluoride, reference compound], the vapour pressure in data set [1] (at 25° C.) is 13,442 mm of Hg.
Turning to `CCCCOC(C)=O` [Butyl acetate, butyl acetate], in the data set with Rhyzopertha dominica, the mortality at 10 µg/mL came out at 1.6 ± 3.5%, the mortality at 20 µg/mL was found to be 0%, the mortality at 30 µg/mL was found to be 0.2 ± 0.7% and the mortality at 50 µg/mL was found to be 20.9 ± 26.8%. In addition, in the data set with Rhyzopertha dominica, the mortality at 100 µg/mL came out at 100%. In addition, in the data set on Sitophilus oryzae, the mortality at 10 µg/mL was determined as 8.3 ± 12.3%, the mortality at 20 µg/mL was found to be 1.7 ± 2.4%, the mortality at 30 µg/mL worked out at 3.2 ± 4.5% and the mortality at 50 µg/mL was found to be 67.3 ± 7.7%. Also, the mortality at 100 µg/mL in the data set with Sitophilus oryzae came to 100%. In the data set with Tribolium castaneum, the mortality at 10 µg/mL came out at 2 ± 2.6%, the mortality at 20 µg/mL turned out to be 2.1 ± 1.1%, the mortality at 30 µg/mL turned out to be 0.6 ± 1.1% and the mortality at 50 µg/mL came out at 13.9 ± 0.8%. Besides, in the data set with Tribolium castaneum, the mortality at 100 µg/mL amounted to 96.2 ± 0.8%.
As for `CCCOC(C)=O` [Propyl acetate, propyl acetate], in the data set on Rhyzopertha dominica, the mortality at 10 µg/mL worked out at 2 ± 4%, the mortality at 20 µg/mL worked out at 7.3 ± 10%, the mortality at 30 µg/mL worked out at 5.3 ± 10.6% and the mortality at 50 µg/mL was 65.4 ± 40%. The mortality at 100 µg/mL in the data set on Rhyzopertha dominica stood at 100%. In the data set on Sitophilus oryzae, the mortality at 10 µg/mL came out at 2.4 ± 3.8%, the mortality at 20 µg/mL worked out at 0.5 ± 1.3%, the mortality at 30 µg/mL is 14.2 ± 8.1% and the mortality at 50 µg/mL was 74.3 ± 20.2%. In addition, in the data set with Sitophilus oryzae, the mortality at 100 µg/mL amounted to 100%. Further, in the data set with Tribolium castaneum, the mortality at 10 µg/mL turned out to be 0.9%, the mortality at 20 µg/mL stood at 0.9%, the mortality at 30 µg/mL came to 12.6 ± 21.2% and the mortality at 50 µg/mL turned out to be 83.2 ± 26.3%. Further, the mortality at 100 µg/mL in the data set with Tribolium castaneum was 100%.
Turning to `CC(=O)OC(C)C` [Isopropyl acetate, isopropyl acetate], in the data set with Rhyzopertha dominica, the mortality at 10 µg/mL came to 4.4 ± 6.9%, the mortality at 20 µg/mL stood at 8.9 ± 10.7%, the mortality at 30 µg/mL was determined as 6.1 ± 6.7% and the mortality at 50 µg/mL is 39.2 ± 8.2%. Also, the mortality at 100 µg/mL with Rhyzopertha dominica was determined as 100%. For the same compound, in the data set with Sitophilus oryzae, the mortality at 10 µg/mL worked out at 5.5 ± 6.9%, the mortality at 20 µg/mL turned out to be 2.3 ± 5.6%, the mortality at 30 µg/mL is 3.7 ± 7.56% and the mortality at 50 µg/mL is 47.1 ± 31.2%. The mortality at 100 µg/mL in the data set on Sitophilus oryzae turned out to be 100%. In the data set on Tribolium castaneum, the mortality at 10 µg/mL came out at 0.3 ± 0.6%, the mortality at 20 µg/mL came to 1.3 ± 1.7%, the mortality at 30 µg/mL was 32.7 ± 44.1% and the mortality at 50 µg/mL was determined as 66.5 ± 27.7%. Further, in the data set on Tribolium castaneum, the mortality at 100 µg/mL came to 100%.

Source of the values: patent US20040191287A1, “Fumigation process for stored food grains” (priority 2003, published 2004).
